Article doi:10.1101/2025.03.25.645215v1 (biorxiv, 2025)

How the values were obtained:
[1] = biological target: DAT (hDAT) (Homo sapiens, UniProt Q01959); experiment: 3H-dopamine uptake inhibition, HEK293, 384-well; type: cell-based
[2] = biological target: GAT1 (hGAT1) (Homo sapiens, UniProt P30531); experiment: 3H-GABA uptake inhibition, HEK293, 384-well; type: cell-based
[3] = biological target: T1, B^0AT2/SLC6A15 (AAV mouse SLC6A15 in primary hippocampal neurons) (Mus musculus, UniProt Q8BG16); experiment: 3H-proline uptake inhibition, AAV-transduced primary hippocampal neurons; type: cell-based
T1 sequence (Q8BG16 1-729): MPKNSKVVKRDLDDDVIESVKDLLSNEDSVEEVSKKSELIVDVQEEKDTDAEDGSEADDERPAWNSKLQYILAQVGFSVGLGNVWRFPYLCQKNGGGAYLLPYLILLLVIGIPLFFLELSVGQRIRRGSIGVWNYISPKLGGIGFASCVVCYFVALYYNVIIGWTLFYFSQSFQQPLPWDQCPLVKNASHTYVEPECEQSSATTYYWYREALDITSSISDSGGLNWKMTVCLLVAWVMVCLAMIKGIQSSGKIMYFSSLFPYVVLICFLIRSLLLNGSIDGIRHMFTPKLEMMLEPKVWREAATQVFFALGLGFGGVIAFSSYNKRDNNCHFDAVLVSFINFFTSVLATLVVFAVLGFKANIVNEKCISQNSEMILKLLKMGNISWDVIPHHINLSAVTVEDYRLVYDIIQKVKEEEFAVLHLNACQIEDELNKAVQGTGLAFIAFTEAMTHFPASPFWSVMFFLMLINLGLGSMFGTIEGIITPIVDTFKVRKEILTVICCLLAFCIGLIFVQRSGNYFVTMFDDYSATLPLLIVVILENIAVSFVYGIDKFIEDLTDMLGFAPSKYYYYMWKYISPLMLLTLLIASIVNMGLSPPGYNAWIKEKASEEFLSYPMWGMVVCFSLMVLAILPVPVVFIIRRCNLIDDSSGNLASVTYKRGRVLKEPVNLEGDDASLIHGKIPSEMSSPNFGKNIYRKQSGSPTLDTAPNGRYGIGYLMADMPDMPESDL

[4] = biological target: SERT (hSERT) (Homo sapiens, UniProt P31645); experiment: 3H-5HT uptake inhibition, HEK293, 384-well; type: cell-based
Sequence of SERT (hSERT) (P31645 whole entry): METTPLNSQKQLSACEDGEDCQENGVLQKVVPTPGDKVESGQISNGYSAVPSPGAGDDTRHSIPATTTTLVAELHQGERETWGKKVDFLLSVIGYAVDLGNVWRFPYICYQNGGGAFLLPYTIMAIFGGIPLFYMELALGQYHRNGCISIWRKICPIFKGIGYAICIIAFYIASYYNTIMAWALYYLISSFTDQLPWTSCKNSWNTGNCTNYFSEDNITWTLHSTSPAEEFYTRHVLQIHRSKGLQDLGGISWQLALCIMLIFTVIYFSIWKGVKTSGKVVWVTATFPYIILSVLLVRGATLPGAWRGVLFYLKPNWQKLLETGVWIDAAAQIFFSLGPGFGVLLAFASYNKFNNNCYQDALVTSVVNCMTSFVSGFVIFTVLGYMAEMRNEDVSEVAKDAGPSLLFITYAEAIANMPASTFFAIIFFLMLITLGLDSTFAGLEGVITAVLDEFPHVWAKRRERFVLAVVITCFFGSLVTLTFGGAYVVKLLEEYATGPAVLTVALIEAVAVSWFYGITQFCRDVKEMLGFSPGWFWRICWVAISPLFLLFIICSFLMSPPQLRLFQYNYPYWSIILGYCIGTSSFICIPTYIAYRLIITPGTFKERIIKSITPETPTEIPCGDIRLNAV

[5] = tested on: NTT4/SLC6A17 (NTT4-B^0AT2 chimera); experiment: 3H-proline uptake inhibition, HEK293, 384-well; type: cell-based; settings: blanket statement for all 1,5-benzodiazepine analogs
[6] = biological target: T2, B^0AT2/SLC6A15 (eGFP-hSLC6A15) (Homo sapiens, UniProt Q9H2J7); experiment: cell-based; design: species or system HEK293 eGFP-hSLC6A15
T2 sequence (Q9H2J7 1-730): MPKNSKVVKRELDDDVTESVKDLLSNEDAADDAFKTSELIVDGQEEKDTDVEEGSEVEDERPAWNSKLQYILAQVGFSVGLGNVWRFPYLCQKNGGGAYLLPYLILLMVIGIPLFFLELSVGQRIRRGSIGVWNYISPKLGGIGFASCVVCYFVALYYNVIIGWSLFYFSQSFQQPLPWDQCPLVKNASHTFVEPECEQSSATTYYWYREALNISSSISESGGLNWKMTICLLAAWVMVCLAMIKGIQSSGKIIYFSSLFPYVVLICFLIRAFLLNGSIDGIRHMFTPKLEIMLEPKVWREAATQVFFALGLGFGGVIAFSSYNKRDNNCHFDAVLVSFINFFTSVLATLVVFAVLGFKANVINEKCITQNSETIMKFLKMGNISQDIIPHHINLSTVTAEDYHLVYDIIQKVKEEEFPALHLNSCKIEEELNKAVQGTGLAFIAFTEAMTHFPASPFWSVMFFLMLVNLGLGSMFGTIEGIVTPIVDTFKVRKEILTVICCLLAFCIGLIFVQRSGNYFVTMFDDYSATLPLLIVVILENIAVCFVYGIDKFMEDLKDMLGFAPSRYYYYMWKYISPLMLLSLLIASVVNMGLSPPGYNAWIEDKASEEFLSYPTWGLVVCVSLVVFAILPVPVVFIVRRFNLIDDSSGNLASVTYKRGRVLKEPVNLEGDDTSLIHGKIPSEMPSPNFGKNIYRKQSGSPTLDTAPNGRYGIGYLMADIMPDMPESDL

Sequence of GAT1 (hGAT1) (P30531 whole entry): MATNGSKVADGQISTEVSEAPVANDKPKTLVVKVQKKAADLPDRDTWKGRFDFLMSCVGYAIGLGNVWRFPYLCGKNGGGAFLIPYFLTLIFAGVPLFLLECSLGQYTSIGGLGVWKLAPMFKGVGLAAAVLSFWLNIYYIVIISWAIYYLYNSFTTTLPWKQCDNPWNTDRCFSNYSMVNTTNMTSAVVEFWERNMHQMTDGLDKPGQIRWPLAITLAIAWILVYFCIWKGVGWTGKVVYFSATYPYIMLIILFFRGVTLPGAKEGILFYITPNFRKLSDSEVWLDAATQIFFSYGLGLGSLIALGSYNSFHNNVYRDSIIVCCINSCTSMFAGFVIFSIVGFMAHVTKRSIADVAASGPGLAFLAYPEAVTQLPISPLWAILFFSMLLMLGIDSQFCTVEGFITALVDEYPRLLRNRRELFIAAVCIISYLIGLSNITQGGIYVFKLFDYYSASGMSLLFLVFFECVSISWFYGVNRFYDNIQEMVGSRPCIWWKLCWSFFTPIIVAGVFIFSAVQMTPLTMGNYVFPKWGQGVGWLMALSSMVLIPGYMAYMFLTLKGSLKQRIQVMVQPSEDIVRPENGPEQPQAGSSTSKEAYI
Sequence of DAT (hDAT) (Q01959 whole entry): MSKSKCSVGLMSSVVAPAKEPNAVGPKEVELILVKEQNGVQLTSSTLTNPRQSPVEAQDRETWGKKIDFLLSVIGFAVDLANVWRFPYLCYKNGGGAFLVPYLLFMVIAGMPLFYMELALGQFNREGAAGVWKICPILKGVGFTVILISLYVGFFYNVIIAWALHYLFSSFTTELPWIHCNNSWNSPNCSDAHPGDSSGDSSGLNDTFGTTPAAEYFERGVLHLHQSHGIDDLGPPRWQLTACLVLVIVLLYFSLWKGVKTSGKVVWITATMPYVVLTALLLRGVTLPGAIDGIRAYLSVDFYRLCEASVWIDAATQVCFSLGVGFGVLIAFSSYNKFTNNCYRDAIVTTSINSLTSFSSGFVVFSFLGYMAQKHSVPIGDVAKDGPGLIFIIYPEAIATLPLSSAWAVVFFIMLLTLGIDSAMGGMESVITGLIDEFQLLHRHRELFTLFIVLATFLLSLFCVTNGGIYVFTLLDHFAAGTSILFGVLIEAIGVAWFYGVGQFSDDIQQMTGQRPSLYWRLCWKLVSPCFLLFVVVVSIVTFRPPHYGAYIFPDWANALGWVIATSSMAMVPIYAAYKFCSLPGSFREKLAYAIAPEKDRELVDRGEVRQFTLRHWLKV

Question: `COc1ccc(C2C3=C(CC(C)CC3=O)Nc3ccccc3N2C(=O)c2ccccc2)cc1` (stereo not drawn) [14c] was tested. Which IC50 [1] did it give?
Answer: > 80 µM

Question: And the IC50 [2]?
Answer: > 80 µM

Question: What about the IC50 [3] of the same molecule?
Answer: 1 ± 0.4 µM

Question: What about the IC50 [4] of the same molecule?
Answer: > 80 µM

Question: And the IC50 [5]?
Answer: > 80 µM

Question: What about the IC50 [6] of the same molecule?
Answer: 0.24 ± 0.05 µM
